The test addresses Plasma kallikrein (Homo sapiens, UniProt P03952). In words: Inhibition of human plasma kallikrein using fluorogenic substrate measured by microplate reader analysis. The format is cell-free.

The term IC50 denotes the concentration needed to halve the response being measured. Higher therefore signals weaker potency.

Sequence of Plasma kallikrein (P03952 20-390 limits assumed): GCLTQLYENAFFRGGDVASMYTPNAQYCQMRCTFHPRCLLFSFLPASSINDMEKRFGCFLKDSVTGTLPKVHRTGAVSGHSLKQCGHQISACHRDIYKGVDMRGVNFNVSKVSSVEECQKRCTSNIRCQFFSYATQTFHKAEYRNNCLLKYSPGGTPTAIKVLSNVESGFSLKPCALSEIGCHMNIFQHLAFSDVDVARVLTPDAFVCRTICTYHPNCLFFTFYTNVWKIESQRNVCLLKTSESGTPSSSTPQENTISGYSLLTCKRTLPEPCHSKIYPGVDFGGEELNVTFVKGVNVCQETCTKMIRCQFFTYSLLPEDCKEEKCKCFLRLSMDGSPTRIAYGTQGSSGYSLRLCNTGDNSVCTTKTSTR
Sequence of Plasma kallikrein (P03952 391-638 limits assumed): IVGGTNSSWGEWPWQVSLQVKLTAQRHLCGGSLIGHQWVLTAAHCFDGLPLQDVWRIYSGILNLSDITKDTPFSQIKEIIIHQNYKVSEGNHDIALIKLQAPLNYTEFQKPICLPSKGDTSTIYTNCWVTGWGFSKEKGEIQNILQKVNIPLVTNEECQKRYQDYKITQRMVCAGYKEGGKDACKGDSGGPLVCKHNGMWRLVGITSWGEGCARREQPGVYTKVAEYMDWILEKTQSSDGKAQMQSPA

`Cc1c([C@H](C)n2cc(NC(=O)c3cncc(-c4c(C(F)F)ccc(Cl)c4F)n3)cn2)cnc(N2C[C@H]3C[C@H]3C2=O)c1F` showed an IC50 of 0.3 nM.
Turning to `COc1c(N2C[C@H]3C[C@H]3C2=O)ncc(C(C)n2cc(NC(=O)c3cncc(-c4c(C(F)F)ccc(Cl)c4F)n3)cn2)c1C` (some centres not stated), it took 0.3 nM to reach half-maximal inhibition (IC50).
